“Also recorded” adds a separate entry of the source.
Assays:
[1] = tested on: PGP 9.5; assay: PGP 9.5 immunocytochemistry of CYP-CIPN rat epidermis (nerve terminals, edema); type: in vivo; settings: fluorescent images, oral 8-AG
Experimental: Animals. This study employed female Harlan Sprague Dawley (HSD) rats (3-4 mo; Envigo, Indianapolis, IN) and were divided into the following groups: 1) Control, 2) Cyclophosphamide (CYP, 75 mg/kg i.p. in saline vehicle; administered on days 0, 3 and 6); 3) 8-aminoguanine (8-AG; 5 mg/kg/day in drinking water; beginning 2 weeks prior to CYP and continuing until sacrifice (day 8)). The dose of 8-AG is based on our preliminary and published experiments. […] The investigation conforms to the Guide for the Care and Use of Laboratory Animals published by the US National Institutes of Health (NIH Publication No. 85-23, revised 1996). In addition, all tissues (dorsal root ganglion, spinal cord, peripheral nerves and hindpaw epidermis) were removed from isoflurane anesthetized rats and the tissue was used for various experimental approaches as described below. At the end of tissue removal, animals were sacrificed by thoracotomy.
Immunocytochemistry: A portion of tissues (a 3 mm biopsy from the rat hindpaw food pad or epidermis) is placed overnight in fixative (4% PFA) and cryoprotected (30% sucrose-phosphate buffered saline). Fluorescence immunocytochemistry was used to process cross-sections (20 μm) using antibodies (validated in rat tissue) against PGP 9.5 (Invitrogen PA5-29012, neuron specific protein; 1:500 dilution). […]

[2] = tested on: superoxide dismutase (SOD1); assay: SOD1 expression in rat epidermis after sciatic nerve injury, Western immunoblotting; type: in vivo; settings: 8-AG 5 mg/kg/day in drinking water
Experimental: Animals. This study employed female Harlan Sprague Dawley (HSD) rats (3-4 mo; Envigo, Indianapolis, IN) and were divided into the following groups: 1) Control, 2) Sciatic nerve crush (day 0, sacrifice on day 6); 3) 8-aminoguanine (8-AG; 5 mg/kg/day in drinking water; beginning 2 weeks prior to nerve crush and continuing until sacrifice (day 6)). The dose of 8-AG is based on the work above and published experiments. Further, the water consumption/day was tracked. […] All tissues (hindpaw epidermis) were removed from isoflurane anesthetized rats and the tissue was used for various experimental approaches as described below. At the end of tissue removal, animals were sacrificed by thoracotomy. […]

## Nc1nc2[nH]c(N)nc2c(=O)[nH]1 [8-AG, 8-Aminoguanine]
[1]
  effect on CYP-induced gross edema: normalized
  effect on CYP-induced neural damage (ragged/damaged fine nerve terminals, PGP 9.5 distribution): normalized
[2]
  effect on sciatic nerve injury-induced decrease in SOD1 expression: restored to control values; also recorded: normalized
[2]; listed as 8-Aminoguanine
  effect on sciatic nerve injury-induced decrease in SOD1 expression: normalized
